# From publication PMC12767106, “In Situ Assembly of Transformable Monopeptide on Activated Neutrophils Attenuates NETs‐Induced Hepatocellular Carcinoma Metastasis by Disrupting NE Nuclear Translocation” (Advanced Science, 2025)
# Key:
# NE protein = target: T1, NE protein (Homo sapiens, UniProt P08246); assay: Transformation kinetics by PpIX fluorescence after addition of NE protein; assay type: physicochemical; conditions: 24 h incubation, NE protein/peptide ligand about 1/1000, emission about 635 nm
# T1 construct: purchased AkrivisBio MA-0156
# T1 sequence (P08246 30-267): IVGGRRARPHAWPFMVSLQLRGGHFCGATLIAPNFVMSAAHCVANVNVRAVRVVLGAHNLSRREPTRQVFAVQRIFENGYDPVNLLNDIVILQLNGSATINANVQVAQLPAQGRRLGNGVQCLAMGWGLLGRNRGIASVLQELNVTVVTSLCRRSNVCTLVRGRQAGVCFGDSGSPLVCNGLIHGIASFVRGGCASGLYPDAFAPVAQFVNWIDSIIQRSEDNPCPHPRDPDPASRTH
# Experimental: Submitted to Advanced Science temperature. Following the incubation, 10 µL of the solution was added to a copper mesh at 0 and 24 h. Filter paper was used to remove any extra droplets after an overnight stay. The samples were then stained for five minutes with uranyl acetate and then rinsed for one minute with water (10 µL). Finally, dried samples were observed by TEM (Talos 120C, Thermo Fisher Scientific, USA). DLS (Zetasizer Nano ZS, UK) was used to assess the solution for hydrodynamic size and zeta potential at 0 and 24 h following the incubation. Then, the nanofiber structure at 0 h and 24 h after incubation of FTP-NPs was examined with Circular Dichroism (CD) Spectra (Chirascan, UM, Britain). In addition, the variation of fluorescence emission spectra of PpIX by […]
# transformation of FTP-NPs.
# Pyrene molecules were employed as an indicator to determine the critical aggregation concentration (CAC) of nanoparticles by comparing the fluorescence of their third and first emissive peaks. […] The fluorescence spectra of pyrene (excitation, 335 nm) in different NPs dilutions were recorded. The fluorescence intensity ratio (I3/I1) of the third and first emissive peaks was measured for CAC calculation. […]
# activated neutrophils = assay: CCK-8 cytotoxicity; assay type: cell-based, mouse; conditions: CCK-8, 24 h, different dosages
# Experimental: The supernatant was discarded, and the red blood cells were lysed with RBC lysate. The neutrophils were then washed with PBS again, and the supernatant was discarded. The cells were resuspended in culture medium and used for further experiments. […]
# Briefly, FTP-NPs were prepared by self-assembly of peptidic nanomaterials and adjusted to various concentrations (0, 50, 100, 200, 400, 800, 1000 μg/mL). […]
# (§1) 10 minutes to remove unbound particles, and the supernatant was collected. […]
# (§2) In vitro cytotoxicity assay
# (§3) The CCK-8 assay was used to assess the cell viability of Hepa1-6/luc, resting neutrophils, and activated neutrophils. Following the seeding of 1*10^4 cells per well on a 96-well plate, the cells were subjected to different dosages of FTP-NPs and NFTP-NPs (medium: DMSO = 99:1 v/v). After 24 hours, the cells were incubated for two hours with 10 µL of CCK-8 solution. Finally, a microplate reader (Tecan Infinite M200, Switzerland) was used to measure cell viability based on the absorbance values.
# (§4) Targeting the capability of NEBP
# (§5) To evaluate the targeting capability of NE-binding peptide (NEBP), the harvested resting neutrophils and […]
# [1] = system: Hepa1-6/luc murine HCC cells; assay: CCK-8 cytotoxicity; assay type: cell-based, mouse; conditions: CCK-8, 24 h, different dosages
# Experimental: as §1, §2, §3, §4, §5
# Hepa1-6 cells = assay: Cell proliferation (CCK-8) with medium from treated neutrophils; assay type: cell-based, mouse; conditions: CCK-8, medium from activated neutrophils treated with NPs; versus Control and NFTP-NPs groups
# Experimental: Submitted to Advanced Science
# Freshly isolated neutrophils were stimulated with PBS, PMA, PMA+NFTP-NPs, PMA+FTP-NPs, and PMA+NEi for 4 h to stimulate NETs formation. Cells were then centrifuged at 480g for 10 minutes. The supernatant (NETs rich media) was then centrifuged at 18000g for 15 mins to form a pellet. The obtained pellet contained the mixture of chromatins and proteins, which was then resuspended in cell culture media to treat cancer cells, which was collected and respectively named as resting neutrophils, Control, NFTP-NPs, FTP-NPs, and NEi, then stored at -80◦C for further use.
# Resting neutrophils (Neu)-treated, Control (Neu+PMA)-treated, NFTP-NPs (Neu+PMA+NFTP-NPs)-treated, FTP-NPs (Neu+PMA+FTP-NPs)-treated, and NEi (Neu+PMA+NEi)-treated Hepa1-6/luc cells and Hepa1-6/luc cells (2×10^3cells/well) were seeded on 96-well plates. Cell proliferation was assessed using the Cell Counting Kit-8 (Biosharp, China) following the manufacturer’s instructions. The final optical density (OD) value was measured daily for 3 consecutive days using a microplate reader at 450 nm (Tecan Infinite M200, Switzerland). Each condition was performed in triplicate. […]
substance,measurement,setting,value
PpIX-GFFVLK-EAIPMSIPPEVK [FTP-NPs],fluorescence intensity of PpIX after addition of NE protein,NE protein,78.3%
same,survival rate,activated neutrophils,over 95%
same,survival rate,[1],over 95%
same,proliferation rate of Hepa1-6 cells,Hepa1-6 cells,much lower
